The values below come from PubChem BioAssay (NCI).

Several values for one entry are separate records, joined by “and”; a condition that tells them apart may be missing. Identical values can stand only once.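 Following 48 hours of exposure in 96-well plates, responses at five concentrations were used to interpolate endpoints linearly. GI50 is the concentration that inhibits growth by half. TGI: concentration producing complete growth inhibition.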

Among the test systems are A498 renal; ACHN renal; HOP-92 NSCLC; HT29 colon; MOLT-4 leukemia; NCI-H460 lung; RXF 393 renal; U251 CNS; UO-31 renal; SF-295 CNS.
What all share (assay): inhibition of tumour cell growth, NCI panel, 48 h

Consider `COC(=O)C1C2CC3C(OC(=O)C31)C2OC(=O)[C@](OC)(c1ccccc1)C(F)(F)F` (some centres undefined), for which the TGI in the assay on A498 renal, with ACHN renal, with HOP-92 NSCLC, in the assay on HT29 colon, in the assay on MOLT-4 leukemia and in the assay with NCI-H460 lung was above 100 µM throughout. The TGI in the assay with RXF 393 renal, in the assay with U251 CNS and in the assay on UO-31 renal was above 100 µM in each case.
As to `CCN(CC)CCNc1ccc2ncn3c4cc(=O)ccc4c(O)c1c23`, the TGI in the assay with A498 renal worked out at 14 µM; with ACHN renal it was 10.6 µM; in the assay on HOP-92 NSCLC, 6.78 µM; with HT29 colon, 11.5 µM; with MOLT-4 leukemia, 6.15 µM; in the assay with NCI-H460 lung it was 9.61 µM. In addition, the TGI with RXF 393 renal is 3.68 µM; in the assay with SF-295 CNS, 10.7 µM; with U251 CNS, 6.59 µM; in the assay on UO-31 renal, 22 µM.
In the case of `CC(=O)C1(O)Cc2c(O)c3c(c(O)c2C(OC2CC(N)C(O)C(C)O2)C1)C(=O)c1ccccc1C3=O` (centres undefined), the TGI was 0.0453 µM in the assay with A498 renal; 0.097 µM and 0.0268 µM in the assay with ACHN renal; 0.867 µM and 0.413 µM with HOP-92 NSCLC; 0.432 µM and 0.234 µM in the assay with HT29 colon; 0.0122 µM and < 0.109 µM in the assay on MOLT-4 leukemia; 0.0836 µM and 0.0123 µM with NCI-H460 lung. For the same molecule, the TGI in the assay on RXF 393 renal was 0.553 µM and 0.0785 µM; in the assay on SF-295 CNS, 0.388 µM and 0.0514 µM; in the assay with U251 CNS, 0.419 µM and 0.13 µM; with UO-31 renal it was 0.204 µM and < 0.0304 µM. Further, the GI50 with HOP-92 NSCLC is 0.0165 µM; in the assay with HT29 colon, 0.0117 µM; with MOLT-4 leukemia, 0.00182 µM; in the assay with RXF 393 renal, 0.15 µM and 0.0166 µM; in the assay with U251 CNS it was below 0.0115 µM; with UO-31 renal, below 0.0127 µM.
On to `COc1ccccc1N=C1SCCN1C(=S)Nc1ccc(S(=O)(=O)/N=C/N(C)C)cc1`, for which the TGI was above 100 µM in the assay with A498 renal; above 100 µM in the assay on ACHN renal; above 100 µM with HOP-92 NSCLC; above 100 µM with MOLT-4 leukemia; above 100 µM with NCI-H460 lung; 45.8 µM with RXF 393 renal. Besides, the TGI with SF-295 CNS, with U251 CNS and in the assay with UO-31 renal was above 100 µM each time.
For `CN(C)CCn1nc(N)c2nc3cc(C(F)(F)F)ccc3nc21`, the TGI with A498 renal, with ACHN renal, in the assay with HOP-92 NSCLC, in the assay on HT29 colon, in the assay on MOLT-4 leukemia and with NCI-H460 lung was above 100 µM throughout. In addition, the TGI with RXF 393 renal, in the assay with SF-295 CNS, in the assay with U251 CNS and in the assay with UO-31 renal was above 100 µM in each case.
As to `C=CCC(SC)C1=C(C)C(=O)c2ccccc21` (centres undefined), the TGI with A498 renal, with ACHN renal, in the assay with HOP-92 NSCLC, with HT29 colon, in the assay with MOLT-4 leukemia and with NCI-H460 lung was above 10 µM in each case. In addition, the TGI in the assay with RXF 393 renal, with SF-295 CNS, with U251 CNS and in the assay on UO-31 renal was above 10 µM in each case.
Regarding `Cc1cc(C)c(N=Nc2c(O)c(S(=O)(=O)O)cc3cc(S(=O)(=O)O)ccc23)cc1C`, the TGI in the assay on A498 renal, in the assay with ACHN renal, in the assay on HOP-92 NSCLC, in the assay on HT29 colon, in the assay with MOLT-4 leukemia and in the assay with RXF 393 renal was above 100 µM in each case. In addition, the TGI in the assay with SF-295 CNS, with U251 CNS and in the assay on UO-31 renal was above 100 µM each time.
Consider `CCCCCCCCCCSCC(CO)NC(=O)/C=C/c1c(C)[nH]c(=O)[nH]c1=O` (centres undefined), for which the GI50 in the assay on A498 renal was 1.98 µM and 4.94 µM; in the assay with SF-295 CNS, 14.6 µM. Further, the TGI in the assay on A498 renal was above 50 µM; in the assay on HOP-92 NSCLC, 3.72 µM and > 20.3 µM; with HT29 colon, above 50 µM; in the assay with MOLT-4 leukemia, 16.8 µM and 9.45 µM; with NCI-H460 lung, 18.2 µM and 49.5 µM; with RXF 393 renal it was above 25.7 µM. In addition, the TGI is above 50 µM with SF-295 CNS; 3.7 µM and 10.7 µM in the assay with U251 CNS; above 50 µM with UO-31 renal.
`OCC(O)C(O)C(O)C(O)/C=N/Nc1nc(O)c(/C=C2\C=Nc3ccccc32)[nH]1` (centres undefined): the TGI in the assay on A498 renal, with ACHN renal, with HOP-92 NSCLC, with HT29 colon, with MOLT-4 leukemia and with NCI-H460 lung was above 100 µM throughout. For the same molecule, the TGI in the assay on RXF 393 renal, with SF-295 CNS and in the assay with U251 CNS was above 100 µM throughout.
Take `CC1CC[C@@]2(OC1)OC1C[C@H]3[C@@H]4CCC5CC(O)CC[C@]5(C)[C@H]4C/C(=N\N(C)C)[C@]3(C)C1[C@@H]2C` (some centres undefined): the TGI in the assay with A498 renal is 48.6 µM; with ACHN renal it was above 100 µM; in the assay on HOP-92 NSCLC it was above 100 µM; in the assay on HT29 colon, 39.9 µM; in the assay with MOLT-4 leukemia, above 100 µM; with NCI-H460 lung, above 100 µM. Besides, the TGI is 37.7 µM in the assay on RXF 393 renal, above 100 µM with U251 CNS and 90.4 µM in the assay on UO-31 renal.
Take `O=[N+]([O-])c1cc(Cl)ccc1S(=O)(=O)N1CCCc2cc(Cl)ccc21`: the TGI in the assay on A498 renal, in the assay on ACHN renal, with HOP-92 NSCLC, with HT29 colon, in the assay with MOLT-4 leukemia and in the assay on NCI-H460 lung was above 100 µM in each case. The TGI in the assay on RXF 393 renal, in the assay with SF-295 CNS and with UO-31 renal was above 100 µM throughout.
For the molecule `COCCNC1CCC2(SCCS2)c2[nH]c3ccccc3c21` (centres undefined), the TGI in the assay on A498 renal was 86.1 µM; in the assay with ACHN renal it was above 100 µM; in the assay with HOP-92 NSCLC, 50.3 µM; in the assay on HT29 colon, above 100 µM; in the assay with MOLT-4 leukemia, above 100 µM; in the assay on NCI-H460 lung, above 100 µM. Also, the TGI is 40.4 µM in the assay on RXF 393 renal, above 100 µM in the assay on SF-295 CNS and above 100 µM with U251 CNS.
Consider `CC(=O)O[C@H]1CC[C@H]2[C@@H]3CCC(C(C)=O)[C@H](C(=O)O)[C@H]3CC[C@]12C` (some centres undefined), for which the TGI with A498 renal, in the assay with HOP-92 NSCLC, in the assay with HT29 colon, in the assay with MOLT-4 leukemia, in the assay on NCI-H460 lung and in the assay on RXF 393 renal was above 100 µM each time. Moreover, the TGI with SF-295 CNS, in the assay with U251 CNS and in the assay with UO-31 renal was above 100 µM in each case.
